Values of other authors, collected in US20060172014A1, “Treatment of lung cancer with active vitamin D compounds in combination with other treatments” (Novacea, Inc., priority 2003, published 2006).

Assays:
[1] = test system: patients with refractory malignancies; conditions: weekly HDPA of calcitriol; Beer et al.

Mean peak calcitriol levels [1]: within the therapeutic range
SMILES: C=C1/C(=C\C=C2/CCC[C@]3(C)[C@@H]([C@H](C)CCCC(C)(C)O)CC[C@@H]23)C[C@@H](O)C[C@@H]1O [calcitriol, 1α,25-dihydroxyvitamin D3]
Dose-limiting toxicity [1]: no dose-limiting toxicity
Growth of lung cancer cell line (lung cancer cell line; cell line containing high levels of vitamin D receptor): inhibit the growth
Growth of lung cancer cell lines (lung cancer cell line; cell lines having insignificant levels of the receptor): not
